Data on four compounds can be found in PMC5238559, “Biomimetic synthesis and HPLC–ECD analysis of the isomers of dracocephins A and B” (Beilstein Journal of Organic Chemistry, 2016).

In brackets after ≈: the same amount, converted by molar mass. Read-outs that look alike come from different tables or passages of the source.

One data set has as its system P-glycoprotein (P-gp). The data set can be described thus: Rhodamine 123 accumulation in P-gp transfected L5178MDR cells. The data set is classed as cell-based. The note with it: 2 and 20 μM of compound. As for the experimental part: In connection with the BBB penetration studies, 2a–d and 3a–d were tested for their potential towards CNS cytotoxic activity on undifferentiated SH-SY5Y neuroblastoma cells. […] On the other hand, the possibility for neuroprotective activity could not be tested with the applied experimental setup. As an additional bioassay on compounds 2a–d and 3a–d, their potential to interfere with the function of P-glycoprotein (P-gp) was tested. By transporting a wide variety of compounds from the CNS back into the blood stream, P-gp is an important element of the BBB [16]. […]
(§1) for 4 h. After the incubation, PAMPA sandwich plates are separated and compound concentrations in donor and acceptor solutions are determined by HPLC-DAD. […]
(§2) Cytotoxicity on SH-SY5Y cells: Cytotoxicity on SH-SY5Y cells was measured in an analogous manner as described in the literature. […]
(§3) were read after o/n incubation. Fifty percent inhibitory concentrations (IC50) were calculated using nonlinear regression curve fitting of log (inhibitor) versus normalized response and variable slope with a least squares (ordinary) fit of GraphPad Prism 5 software, for three independent samples.
Evaluation of compounds effect on rhodamine 123 accumulation: Rd123 concentration inside L5178PAR and L5178MDR cells was determined by flow cytometry. […]

Data set [1] is described as follows: Cytotoxicity on SH-SY5Y cells (MTT). The data set is classed as cell-based. The settings on record: human, undifferentiated SH-SY5Y neuroblastoma cells. As for the experimental part: for 4 h. After the incubation, PAMPA sandwich plates are separated and compound concentrations in donor and acceptor solutions are determined by HPLC-DAD.
SH-SY5Y neuroblastoma was cultured in EMEM media supplemented with non-essential amino acids, 1 mM Na pyruvate and 10% inactivated fetal bovine serum, nystatin, 2 mM L-glutamine, 100 U penicillin and 0.1 mg streptomycin, purchased from Sigma. Cells were cultured at 37 °C and 5% CO2. […]
as §2, §3
Evaluation of compounds effect on rhodamine 123 accumulation: Rd123 concentration inside L5178PAR and L5178MDR cells was determined by flow cytometry.
Briefly, 2 × 10^6 cells/mL were treated with 2 and 20 μM of each compound and incubated for 10 min at rt. […] The fluorescence of the samples was measured by flow cytometry (Becton Dickinson FACScan, BD, U.S.). […]
Fluorescence activity ratio measures the capacity of inhibition (accumulation of Rd123) and it is equal to the ratio between the FL-1 values of the L5178MDR cells […]

Data set [2] can be described thus: DPPH radical scavenging test. The note with it: microplate format. The method, then:
Antioxidant activity: The radical scavenging capacity of dracocephins A and B were
tested in the microplate format of the 2,2-diphenyl-1-picrylhydrazyl (DPPH) assay.
Naringenin and quercetin were obtained from PhytoLab (Vestenbergsgreuth,
Germany), and used as controls. […]
On the technique in general: Loss of DPPH colour is used to gauge radical scavenging.

A short description of data set [3]: pKa determination by aqueous titrations. The data set is classed as physicochemical. The note with it: aqueous solution, phenolic hydroxy group. As for the experimental part: (§4) n-octanol. From the n-octanol containing titrations the poKa (the apparent ionization constant in the presence of n-octanol) and then logP values were estimated and refined by a weighted non-linear least-squares procedure, where the aqueous pKa values (taken from aqueous titrations) were used as unrefined contributions. For each compound a minimum of three to six titrations at different phase volume ratios were measured, and the respective average logP values were calculated. logD values were also calculated by logP and pKa values using the Henderson– Hasselbalch equation. The relevant relationships between logP, pKa, and poKa, for mono- and multiprotic substances, including cases of ion-pair formation, have been described in detail earlier. […]

A short description of data set [4]: logP determination by titrations in the presence of n-octanol; logD calculated from logP and pKa. The data set is classed as physicochemical. The settings on record: n-octanol/water; for logP: lipophilicity of neutral species; for logD: calculated from logP and pKa by Henderson–Hasselbalch equation. As for the experimental part:
as §4

A further data set is described as follows: in vitro. The data set is classed as in vitro ADME. The settings on record: pig, PAMPA, pH 7.4. The method, then: Physicochemical characterization of dracocephins A and B was also carried out. […] Similarly to this lipophilicity trend, the TPSA value of (±)-naringenin is lower than dracocephins A and B, however, there is no difference between the calculated TPSA values of 2a–d and 3a–d. […] Among these proton-dissociation constants, the lowest acidic pKa values are predominant in physiological environment, which is also indicated by the difference of log D values between pH 7.4 and pH 6.5. The blood–brain barrier (BBB) specific penetration of dracocephins isomers has also been studied by the PAMPA (parallel artificial membrane permeability assay)-BBB model system, which indicates passive diffusion of test compounds across the brain capillary endothelium. […]
n-octanol. […] For each compound a minimum of three to six titrations at different phase volume ratios were measured, and the respective average logP values were calculated. logD values were also calculated by logP and pKa values using the Henderson– Hasselbalch equation. […]
as §1, §2
In general terms: The PAMPA barrier holds no transporters, so it reflects passive diffusion.

The mark [5] stands for this setting: first value in cell, read-out: pKa (first, lowest acidic).
Where [6] appears, read: second value in cell, read-out: pKa (second) (converted).
Where [7] appears, read: third value in cell, read-out: pKa (third) (converted).

For orientation: IC50 means the concentration needed to halve the response being measured. A low value points to greater potency. For orientation: pKa means the pH at which an ionisable group is half protonated. As usually defined, the logP is a log measure of how a compound divides between an organic and an aqueous phase. For the compound `O=C1CCC(c2c(O)cc(O)c3c2OC(c2ccc(O)cc2)CC3=O)N1` (stereo not drawn) [3a–d, 8-(2”-pyrrolidinone-5”-yl)naringenin], the “P-gp inhibition (rhodamine 123 accumulation)” value in the data set with P-glycoprotein (P-gp) is reported as “none of the synthesized compounds inhibits this transporter”. Besides, in data set [1], the IC50 at 48 h is greater than 150 µM. Also, the “IC50 DPPH radical scavenging” value in data set [2] was greater than 200 mg/L. The pKa in data set [3] (setting [5]) was 6.54; in data set [3] (setting [6]), 9.54; in data set [3] (setting [7]), 12. Besides, the logP in data set [4] was 2.39 ± 0.02. Also, the logD in data set [4] (pH 6.5, read-out: log D6.5) is 2.12; in data set [4] (pH 7.4, read-out: log D7.4) it was 1.51.

On to naringenin [(±)-1, reference compound], for which the “IC50 DPPH radical scavenging” value in data set [2] is greater than 200 mg/L.

What is called Papp is the rate of passage across a membrane or cell layer, normalised by area and donor concentration. Consider `O=C1CCC(c2c(O)cc3c(c2O)C(=O)CC(c2ccc(O)cc2)O3)N1` (stereo not drawn) [2a–d, 6-(2”-pyrrolidinone-5”-yl)naringenin], for which the “P-gp inhibition (rhodamine 123 accumulation)” value in the data set on P-glycoprotein (P-gp) is on record as “none of the synthesized compounds inhibits this transporter”. The IC50 at 48 h in data set [1] is greater than 150 µM. Besides, the “IC50 DPPH radical scavenging” value in data set [2] was greater than 200 mg/L. The same compound registered a Papp at 4 h, 100 µM in “in vitro” of 11 ± 1 nm/s. For the same compound, the pKa was 6.69 ± 0.01 in data set [3] (setting [5]), 9.47 in data set [3] (setting [6]) and 12.3 in data set [3] (setting [7]). In addition, the logP in data set [4] is 2.52 ± 0.02. Moreover, the logD was 2.31 in data set [4] (pH 6.5, read-out: log D6.5) and 1.74 in data set [4] (pH 7.4, read-out: log D7.4).

For `O=c1c(O)c(-c2ccc(O)c(O)c2)oc2cc(O)cc(O)c12` [quercetin, reference compound], the “IC50 DPPH radical scavenging” value in data set [2] is 9.4 ± 0.6 mg/L (≈ 31.1 µM).
